The source of these data is patent US10485236B2, “Triazole derivatives, intermediates thereof and their use as fungicides” (Bayer CropScience Aktiengesellschaft, priority 2015, dated 2019).

Broadly, the chromatographic logP is lipophilicity estimated from chromatographic retention. Higher therefore signals a more lipophilic compound.

The test system of one series is Puccinia recondita. Description: Example B: in vivo preventive test on Puccinia recondita (brown rust on wheat). The note with it: 264 h, 500 ppm of active ingredient, wheat plants, preventive spray, evaluated 11 days after inoculation, read-out: efficacy. As to the method: (§1) Example B: In Vivo Preventive Test on Puccinia recondita (Brown Rust on Wheat) [table] The active ingredients are made soluble and homogenized in a mixture of Dimethyl sulfoxide/Acetone//Tween® 80 and then diluted in water to the desired concentration. The young plants of wheat are treated by spraying the active ingredient prepared as described above. Control plants are treated only with an aqueous solution of Acetone/Dimethyl sulfoxide/Tween® 80. After 24 hours, the plants are contaminated by spraying the leaves with an aqueous suspension of Puccinia recondita spores. The contaminated wheat plants are incubated for 24 hours at 20° C. and at 100% relative humidity and then for 10 days at 20° C. and at 70-80% relative humidity. The test is evaluated 11 days after the inoculation. 0% means an efficacy which corresponds to that of the control plants while an efficacy of 100% means that no disease is observed.

The subject of a further series is Botrytis cinerea. Description: Example A: in vivo preventive test on Botrytis cinerea (grey mould), gherkin. The conditions noted are these: gherkin plants, preventive spray, evaluated 4 to 5 days after inoculation, read-out: efficacy. As to the method: Example A: In Vivo Preventive Test on Botrytis cinerea (Grey Mould) [table] The active ingredients are made soluble and homogenized in a mixture of Dimethyl sulfoxide/Acetone//Tween® 80 and then diluted in water to the desired concentration. The young plants of gherkin are treated by spraying the active ingredient prepared as described above. Control plants are treated only with an aqueous solution of Acetone/Dimethyl sulfoxide/Tween® 80. After 24 hours, the plants are contaminated by spraying the leaves with an aqueous suspension of Botrytis cinerea spores. The contaminated gherkin plants are incubated for 4 to 5 days at 17° C. and at 90% relative humidity. The test is evaluated 4 to 5 days after the inoculation. 0% means an efficacy which corresponds to that of the control plants while an efficacy of 100% means that no disease is observed.

The test system of a further series is Alternaria solani. Kind of series: Example F: in vivo preventive test on Alternaria test (tomatoes). The conditions noted are these: 72 h, 100 ppm of active ingredient, preventive spray, evaluated 3 days after inoculation, read-out: efficacy. As to the method:
Example F: In Vivo Preventive Test on Alternaria Test (Tomatoes) [table] To produce a suitable preparation of active compound, 1 part by weight of active compound is mixed with the stated amounts of solvent and emulsifier, and the concentrate is diluted with water to the desired concentration. To test for preventive activity, young plants are sprayed with the preparation of active compound at the stated rate of application. After the spray coating has dried on, the plants are inoculated with an aqueous spore suspension of Alternaria solani. The plants are then placed in an incubation cabinet at approximately 20° C. and a relative atmospheric humidity of 100%. The test is evaluated 3 days after the inoculation. 0% means an efficacy which corresponds to that of the untreated control while an efficacy of 100% means that no disease is observed.

For the next series, the system named is Septoria tritici. Kind of series: Example C: in vivo preventive test on Septoria tritici (leaf spot on wheat). The note with it: Zymoseptoria tritici, 576 h; 500 ppm of active ingredient; wheat plants, preventive spray; evaluated 24 days after inoculation; read-out: efficacy. How it is done: Example C: In Vivo Preventive Test on Septoria tritici (Leaf Spot on Wheat) [table] The active ingredients are made soluble and homogenized in a mixture of Dimethyl sulfoxide/Acetone//Tween® 80 and then diluted in water to the desired concentration. The young plants of wheat are treated by spraying the active ingredient prepared as described above. Control plants are treated only with an aqueous solution of Acetone/Dimethyl sulfoxide/Tween® 80. After 24 hours, the plants are contaminated by spraying the leaves with an aqueous suspension of Septoria tritici spores. The contaminated wheat plants are incubated for 72 hours at 18° C. and at 100% relative humidity and then for 21 days at 20° C. and at 90% relative humidity. The test is evaluated 24 days after the inoculation. 0% means an efficacy which corresponds to that of the control plants while an efficacy of 100% means that no disease is observed.

The test system of series [1] is Sphaerotheca fuliginea. Kind of series: Example D: in vivo preventive test on Sphaerotheca fuliginea (powdery mildew on cucurbits). The conditions noted are these: Podosphaera fuliginea, 360 h; 500 ppm of active ingredient; gherkin plants, preventive spray; evaluated 15 days after inoculation; read-out: efficacy. How it is done:
Example D: In Vivo Preventive Test on Sphaerotheca fuliginea (Powdery Mildew on Cucurbits) [table] The active ingredients are made soluble and homogenized in a mixture of Dimethyl sulfoxide/Acetone//Tween® 80 and then diluted in water to the desired concentration. The young plants of gherkin are treated by spraying the active ingredient prepared as described above. Control plants are treated only with an aqueous solution of Acetone/Dimethyl sulfoxide/Tween® 80. After 24 hours, the plants are contaminated by spraying the leaves with an aqueous suspension of Sphaerotheca fuliginea spores. The contaminated gherkin plants are incubated for 72 hours at 18° C. and at 100% relative humidity and then for 12 days at 20° C. and at 70-80% relative humidity. The test is evaluated 15 days after the inoculation. 0% means an efficacy which corresponds to that of the control plants while an efficacy of 100% means that no disease is observed.

A further series has as its system Uromyces appendiculatus. Kind of series: Example E: in vivo preventive test on Uromyces appendiculatus (bean rust). The conditions noted are these: 264 h, 500 ppm of active ingredient, bean plants, preventive spray, evaluated 11 days after inoculation, read-out: efficacy. As to the method: as §1, with “E:” for “B:”, “Uromyces appendiculatus (Bean Rust)” for “Puccinia recondita (Brown Rust on Wheat)”, “bean” for “wheat”, “Uromyces appendiculatus” for “Puccinia recondita”

For another series, the system named is Venturia inaequalis. Description: Example H: in vivo preventive test on Venturia test (apples). The note with it: 240 h, 100 ppm of active ingredient, preventive spray, evaluated 10 days after inoculation, read-out: efficacy. As to the method: Example H: In Vivo Preventive Test on Venturia Test (Apples) [table] To produce a suitable preparation of active compound, 1 part by weight of active compound is mixed with the stated amounts of solvent and emulsifier, and the concentrate is diluted with water to the desired concentration. To test for preventive activity, young plants are sprayed with the preparation of active compound at the stated rate of application. After the spray coating has dried on, the plants are inoculated with an aqueous conidia suspension of the causal agent of apple scab (Venturia inaequalis) and then remain for 1 day in an incubation cabinet at approximately 20° C. and a relative atmospheric humidity of 100%. The plants are then placed in a greenhouse at approximately 21° C. and a relative atmospheric humidity of approximately 90%. The test is evaluated 10 days after the inoculation. 0% means an efficacy which corresponds to that of the untreated control, while an efficacy of 100% means that no disease is observed.

Series [2] relates to Sphaerotheca fuliginea. Description: Example M: in vivo preventive test on Sphaerotheca (cucumbers); comparison of phenoxy-pyridyl compounds vs. known phenoxy-phenyl compounds. The note with it: Podosphaera fuliginea, 168 h, rate of application 10 ppm, evaluated 7 days after inoculation, read-out: Efficacy in %. As to the method:
Example M: In Vivo Preventive Test on Sphaerotheca (Cucumbers); Comparison of Phenoxy-pyridyl Compounds According to the Invention Vs. Known Phenoxy-phenyl Compounds [table] To produce a suitable preparation of active compound, 1 part by weight of active compound is mixed with the above stated amounts of solvent and emulsifier, and the concentrate is diluted with water to the desired concentration. To test for preventive activity, young plants are sprayed with the preparation of active compound at the stated rate of application. After the spray coating has dried on, the plants are inoculated with an aqueous spore suspension of Sphaerotheca fuliginea. The plants are then placed in a greenhouse at approximately 23° C. and a relative atmospheric humidity of approximately 70%. The test is evaluated 7 days after the inoculation. 0% means an efficacy which corresponds to that of the untreated control, while an efficacy of 100% means that no disease is observed. [table]

Series [3] can be described thus: Measurement of LogP values by HPLC on reversed phase columns (EEC directive 79/831 Annex V.A8). In kind it is physicochemical. The note with it: reversed phase HPLC column, method [a]: LC-UV, acidic range, 0.1% formic acid in water and acetonitrile as eluent. The method, boiled down:
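Calibrated with straight-chain alkan-2-ones (3–16 carbons) of known LogP, using retention times with linear interpolation between successive alkanones. Where one method gives several LogP values, all are listed, joined by "+". Lambda-max taken from UV spectra (200–400 nm) at chromatographic peak maxima.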

On to `Cc1ccc(Oc2ccc(C(C)(O)Cn3cncn3)c(Cl)n2)cc1Cl` (stereo not drawn) [I.29], for which the pest or weed control at 500 ppm in the series on Puccinia recondita was 80 to 89%; in the series with Septoria tritici, 90 to 100%; with Sphaerotheca fuliginea [1] it was 90 to 100%; with Uromyces appendiculatus it was 90 to 100%. Moreover, the pest or weed control with Botrytis cinerea lay in the range of 90 to 100%. Moreover, the pest or weed control at 100 ppm in the series on Alternaria solani and with Venturia inaequalis was 90 to 100% throughout. The pest or weed control at 10 ppm in the series with Sphaerotheca fuliginea [2] worked out at 95%. In series [3], this molecule had a chromatographic logP of 3.
